US20090105463A1, “Compositions of and Methods of Using Oversulfated Glycosaminoglycans” (Massachusetts Institute of Technology, priority 2005, published 2009)

B1: VEGF-C: vascular endothelial growth factor C, ligand of VEGFR2 and VEGFR3 (protein, UniProt P49767 112-227, looked up)
Vascular endothelial growth …: AHYNTEILKSIDNEWRKTQCMPREVCIDVGKEFGVATNTFFKPPCVSVYRCGGCCNSEGLQCMNTSTSYLSKTLFEITVPLSQGPKPVTISFANHTSCRCMSKLDVYRQVHSIIRR
B2: VEGF-D: vascular endothelial growth factor D, ligand of VEGFR2 and VEGFR3 (protein, UniProt O43915 89-205, looked up)
Vascular endothelial growth …: FAATFYDIETLKVIDEEWQRTQCSPRETCVEVASELGKSTNTFFKPPCVNVFRCGGCCNEESLICMNTSTSYISKQLFEISVPLTSVPELVPVKVANHTGCKCLPTAPRHPYSIIRR
B3: FGF7: Recombinant FGF7 from Sigma (protein, UniProt P21781 32-194, looked up)
Fibroblast growth factor 7: CNDMTPEQMATNVNCSSPERHTRSYDYMEGGDIRVRRLFCRTQWYLRIDKRGKVKGTQEMKNNYNIMEIRTVAVGIVAIKGVESEFYLAMNKEGKLYAKKECNEDCNFKELILENHYNTYASAKWTHNGGEMFVALNQKGIPVRGKKTKKEQKTAHFLPMAIT

What was measured:
Format in all cases: cell-based, rat
[1] = test system: NBT-II cells; assay: Proliferation assay, whole cell number by electronic cell counter; parameters: reduction in whole cell number / reduction in cell number in the presence of FGF7: concentration or dose not given beside the values; settings: for percent reduction in whole cell number ± standard deviation / proliferative effect of ligand in the absence of GAGs / reduction in whole cell number: no GAG; for proliferative effect of ligand in the absence of GAGs: ligand 10 ng/ml; for reduction in whole cell number: ligand alone; for reduction in whole cell number / reduction in cell number in the presence of FGF7: compared to untreated cells; for reduction in cell number in the presence of FGF7: ligand plus FGF7, no GAG
Experimental: NBT-II cells were grown until confluence in 75 cm^2 flasks. Each flask was washed with 20 ml PBS and treated with 3 ml trypsin-EDTA at 37° C. for ˜15 minutes until cells completely detached. Cells were centrifuged for 3 minutes at 195×g. The supernatant was aspirated, and the cells were resuspended in 10 ml media. Cell density was measured using an electronic cell counter, and the suspension was diluted to 50,000 cells/ml. The suspension was plated 1 ml/well into 24-well tissue culture plates. After a 24 hour incubation in a 5% CO2, 37° C. humidified incubator, the media was aspirated, the wells were washed with serum free media, and the cells were supplemented with media containing 0.1% FBS and incubated for 24 hours. Cells were sequentially treated with antibodies, GAGs and growth factors as appropriate. Sodium chlorate was added at 50 mM [30]. Antibodies to VEGFR2 or VEGFR3 were added to yield a final dilution of 1:100. All GAGs were initially added over a range of concentrations from 1 ng/ml to 100 μg/ml. Heparin, UDS and DS DT were subsequently added at 1 μg/ml unless otherwise noted. FGF1, FGF2, FGF7 and VEGF were added at 10 ng/ml unless otherwise noted. Cells were then incubated for 72 hours. Wells were then washed twice with PBS and treated with 0.5 ml trypsin-EDTA/well and incubated for 10 minutes at 37° C. Whole cell number was determined using an electronic cell counter.

[2] = test system: VEGF-C; assay: Whole cell ELISA for VEGF-C
Experimental: (§1) ELISA was performed using whole cells to quantify relative levels of kinase activity. NBT-II cells were grown until confluence in 75 cm^2 flasks. Each flask was washed with 20 ml PBS and treated with 3 ml trypsin-EDTA at 37° C. for 3-5 minutes, until cells detached. Cells were centrifuged for 3 minutes at 195×g. The supernatant was aspirated, and the cells were resuspended in 10 ml media. The cell density was measured using an electronic cell counter, and the suspension was diluted to 50,000 cells/ml. 100 mm dishes were supplemented with 10 ml cell suspension per dish. After a 24 hour incubation, the media was aspirated, the dishes washed with serum free media, and the cells supplemented with media containing 0.1% FBS. After a 24 hour incubation, dishes were treated with PBS, 10 μg/ml heparin or 10 μg/ml DS DT. […] Cells were incubated for 30 minutes (for Erk1, Erk2, phosphor-Erk1/2, Mek1, Mek2, phospho-Mek1/2, Akt1/2 and phospho-Akt1/2/3) or 24 hours (for VEGF, VEGF-C and VEGF-D). Media were aspirated and cells were homogenized per manufacture instructions. Total protein concentration was determined by Bradford assay. […] The reaction was quenched with 3 M sulfuric acid, and the plates were analyzed using a UV plate reader at 450 nm. Data were quantified by comparing to a standardized curve with varying concentrations of protein from untreated cells.

[3] = test system: VEGF-D; assay: Whole cell ELISA for VEGF-D; settings: FGF2 in the presence of PBS, heparin or DS DT, 24 hours
Experimental: as §1

[4] = test system: VEGFR3; assay: Whole cell ELISA for VEGFR3; settings: addition of ligand, 24 hours
Experimental: (§2) ELISA was performed using whole cells to quantify relative levels of kinase activity. NBT-II cells were grown until confluence in 75 cm^2 flasks. Each flask was washed with 20 ml PBS and treated with 3 ml trypsin-EDTA at 37° C. for 3-5 minutes, until cells detached. Cells were centrifuged for 3 minutes at 195×g. The supernatant was aspirated, and the cells were resuspended in 10 ml media. The cell density was measured using an electronic cell counter, and the suspension was diluted to 50,000 cells/ml. 100 mm dishes were supplemented with 10 ml cell suspension per dish. After a 24 hour incubation, the media was aspirated, the dishes washed with serum free media, and the cells supplemented with media containing 0.1% FBS. After a 24 hour incubation, dishes were treated with PBS, 10 μg/ml heparin or 10 μg/ml DS DT. Subsequently, cells were treated with 10 ng/ml FGF7, 10 ng/ml VEGF or both. Cells were incubated for 30 minutes (for Erk1, Erk2, phosphor-Erk1/2, Mek1, Mek2, phospho-Mek1/2, Akt1/2 and phospho-Akt1/2/3) or 24 hours (for VEGF, VEGF-C and VEGF-D). […] Total protein concentration was determined by Bradford assay. […] The reaction was quenched with 3 M sulfuric acid, and the plates were analyzed using a UV plate reader at 450 nm. Data were quantified by comparing to a standardized curve with varying concentrations of protein from untreated cells.

[5] = test system: phospho-Akt1/2/3 (Thr 308); assay: Whole cell ELISA for phospho-Akt1/2/3 (Thr 308); settings: ligand in the presence of PBS (no GAG)
Experimental: as §2

[6] = FGF7: ligand (10 ng/ml) or PBS plus FGF7 at 10 ng/ml

Molecule	percent reduction in whole cell number ± standard deviation [1, 6] [%]	percent reduction in whole cell number ± standard deviation ([1]; PBS: ligand at 10 ng/ml alone) [%]	proliferative effect of ligand in the absence of GAGs [1]	reduction in whole cell number [1] [%]	reduction in cell number in the presence of FGF7 [1] [%]	VEGFR3 production [4]	further results
FGF1: Recombinant FGF1, gift from Amgen	18.0 ± 2.6	5.4 ± 8.3	did not induce significant proliferative effects				
FGF2: Recombinant human FGF2, gift from Scios	30.4 ± 8.7	18.3 ± 5.0	reduced whole cell number				production of VEGF-C ([2]; FGF2 in the presence of PBS, heparin or DS DT, 24 hours): did not alter; production of VEGF-D [3]: did not alter
VEGF	30.1 ± 7.0	19.8 ± 4.5	reduced whole cell number	19.8±4.5	30.1±7.0	not	VEGF-C levels ([2]; ligand over 24 hours, regardless of GAG used): increased
B1				13.4±8.7	5.9±5.0		
B2				16.2±10.8	34.5±1.5		
B3	14.1 ± 2.5			14.1±2.5		increase	increase in whole cell number ([1]; FGF7 alone, cells treated with 50 mM sodium chlorate): 28.4±11.8%; concentration eliciting maximal effect on cell growth ([1]; dose response, no sodium chlorate, effect constant through 100 ng/ml): 5 ng/mL; concentration at which maximal proliferative effect is achieved ([1]; in the presence of 50 mM sodium chlorate): 10 ng/mL; reduction of phosphorylation of Akt1/2/3 (Thr 308) [5]: ~20%
